These results are taken from patent US20110287934A1, “HERBICIDAL COMPOSITION FOR TOLERANT OR RESISTANT RICE CROPS” (priority 2010, published 2011).

Common to all, as to type: in vivo
The subject of one data set is Cyperus esculentus. Put plainly: Greenhouse trial, efficacy with respect to Cyperus esculentus. The note with it: post-emergence, 1-3-leaf stage, scoring 15 days after application. As to the method:
(§1) The trials were carried out under greenhouse conditions (test pots, diameter 8 cm, spray application using 300 l of water/hectare, 2 repetitions, 6 to 8 plants per pot, permanently flooded).
(§2) Application was by post-emergence treatment, the species of the harmful plants and their stage of growth at the time of treatment are indicated in the individual results tables. The application rates of the herbicidally active compounds used on their own or in combinations are likewise listed in the individual results tables.
(§3) Scoring was by visual comparison of the treated with the untreated controls (0-100% scale, 13-15 days after the application) (see details in the respective tables).
(§4) 4.2 Abbreviations Used in Tables 4 to 6 • application rate g/ai=application rate in grams of active compound per hectare • ai=active ingredient (of an active compound content of 100%) • GA=glufosinate-ammonium • GA-tolerant=rice which is tolerant to GA (GMO: LL-rice) • E^C=expected value according to Colby, (E^C=A+B−A×B/100) • =for ternary combinations: (A+B)+C−(A+B)×C/100 • E^A=expected value according to the addition method (E^A=A+B) • Δ=difference (%) between observed value—%—vs. expected value (%) (observed value minus expected value) examination: observed values for (A), (B) and (A)+(B) in scoring: observed value (%) greater >than E^C/E^A:->synergism (+Δ) • observed value (%) equal to =E^C/E^A->additive effect (+−0Δ) • observed value (%) smaller <than E^A/E^C->antagonism (−Δ)

In a further data set the test system is Leptochloa chinensis. Put plainly: Greenhouse trial, efficacy with respect to Leptochloa chinensis. The note with it: post-emergence. As to the method: as §1, §2, §3, §4
The next data set concerns Amaranthus retroflexus. The experiment in a line: Greenhouse trial, efficacy with respect to Amaranthus retroflexus. The note with it: post-emergence, 2-3-leaf stage, scoring 13 days after treatment. As to the method: as §1, §2, §3, §4
In a further data set the test system is rice (GA-tolerant). The experiment in a line: Greenhouse trial, crop plant compatibility in rice (GA-tolerant). As to the method: as §1, §3
Setting [1] is: Dinebra chinensis, 360 h, read-out: Herbicidal activity % Leptochloa chinensis.
The mark [2] stands for this setting: 100 g of ai/ha, post-emergence, 1-3-leaf stage, scoring 15 days after application (Table 5).
[3] abbreviates: 50 g of ai/ha, post-emergence, 1-3-leaf stage, scoring 15 days after application (Table 5).

As for `CP(=O)(O)CCC(N)C(=O)O` (centres unmarked) [A1.1, glufosinate-ammonium], the “Herbicidal efficacy % Cyperus esculentus” value in the data set on Cyperus esculentus (100 g of ai/ha) was found to be 25%. Besides, the inhibition at 100 g/ha in the data set with Leptochloa chinensis (setting [1]) was 10%. In addition, the “Herbicidal efficacy % Amaranthus retroflexus” value with Amaranthus retroflexus (100 g of ai/ha) is reported as 55%. The “Damage to crop plants (%) rice (GA-tolerant) (≦15-20% acceptable)” value (“Damage to crop plants (%) rice” for short) was 10% in the data set with rice (GA-tolerant) (setting [2]); 10% in the data set with rice (GA-tolerant) (100 g of ai/ha, post-emergence, 1-3-leaf stage, scoring 15 days after application (Table 6)); 10% with rice (GA-tolerant) (100 g of ai/ha, post-emergence, 2-3-leaf stage, scoring 13 days after treatment).

`COC(=O)c1nc(-c2ccc(Cl)c(OC)c2F)cc(N)c1Cl` [B1.1, methyl 4-amino-3-chloro-6-(4-chloro-2-fluoro-3-methoxyphenyl)pyridine-2-carboxylate]: the “Herbicidal efficacy % Cyperus esculentus” value with Cyperus esculentus (20 g of ai/ha) is recorded as 60%. Moreover, in the data set with Leptochloa chinensis (setting [1]), the inhibition at 20 g/ha stood at 45%. Moreover, the “Herbicidal efficacy % Amaranthus retroflexus” value in the data set with Amaranthus retroflexus (20 g of ai/ha) came out at 90%. Also, in the data set with rice (GA-tolerant) (in vivo), the “Damage to crop plants (%) rice” value was determined as 0%.

`Cc1nn(-c2cc(CC(Cl)C(=O)O)c(Cl)cc2F)c(=O)n1C(F)F` (centres unmarked) [C13, carfentrazone]: in the data set on Cyperus esculentus (4 g of ai/ha), the “Herbicidal efficacy % Cyperus esculentus” value is recorded as 0%. For the same compound, in the data set on rice (GA-tolerant) (4 g of ai/ha, post-emergence, 1-3-leaf stage, scoring 15 days after application (Table 5)), the “Damage to crop plants (%) rice” value worked out at 10%.

For the compound `CC1(C)CON(Cc2ccccc2Cl)C1=O` [C17, clomazone], the “Herbicidal efficacy % Cyperus esculentus” value in the data set on Cyperus esculentus (100 g of ai/ha) turned out to be 10%. The “Damage to crop plants (%) rice” value in the data set with rice (GA-tolerant) (setting [2]) came to 0%.

On to `C[C@@H](Oc1ccc(Oc2ccc(C#N)cc2F)cc1)C(=O)O` [C19, cyhalofop], for which the “Herbicidal efficacy % Cyperus esculentus” value in the data set with Cyperus esculentus (50 g of ai/ha) was 10%. Further, the “Damage to crop plants (%) rice” value in the data set with rice (GA-tolerant) (setting [3]) worked out at 0%.

As to `O=C(O)COc1ccc(Cl)cc1Cl` [C20, 2,4-D], the “Herbicidal efficacy % Cyperus esculentus” value in the data set on Cyperus esculentus (100 g of ai/ha) amounted to 20%. Also, in the data set with rice (GA-tolerant) (setting [2]), the “Damage to crop plants (%) rice” value came to 0%.

As to `CCOc1ccccc1OS(=O)(=O)NC(=O)Nc1nc(OC)cc(OC)n1` [C24, ethoxysulfuron], in the data set on Amaranthus retroflexus (10 g of ai/ha), the “Herbicidal efficacy % Amaranthus retroflexus” value is on record as 40%. The “Damage to crop plants (%) rice” value with rice (GA-tolerant) (in vivo) turned out to be 0%.

In the case of `CCOC(=O)[C@@H](C)Oc1ccc(Oc2nc3ccc(Cl)cc3o2)cc1` [C29, fenoxaprop-P-ethyl], the “Herbicidal efficacy % Amaranthus retroflexus” value in the data set with Amaranthus retroflexus (10 g of ai/ha) is 10%. In the data set with rice (GA-tolerant) (10 g of ai/ha, post-emergence, 2-3-leaf stage, scoring 13 days after treatment), the “Damage to crop plants (%) rice” value came to 10%.

On to `CCN(C(=O)n1nnn(-c2ccccc2Cl)c1=O)C1CCCCC1` [C30, fentrazamide], for which the “Herbicidal efficacy % Amaranthus retroflexus” value in the data set with Amaranthus retroflexus (75 g of ai/ha) came out at 30%.

On to `COC(=O)c1ccccc1S(=O)(=O)NC(=O)Nc1nc(C)nc(OC)n1` [C43, metsulfuron-methyl], for which the “Herbicidal efficacy % Cyperus esculentus” value in the data set with Cyperus esculentus (3 g of ai/ha) worked out at 0%. Besides, the “Damage to crop plants (%) rice” value in the data set with rice (GA-tolerant) (in vivo) worked out at 15%.

With `CC(C)Oc1cc(-n2nc(C(C)(C)C)oc2=O)c(Cl)cc1Cl` [C50, oxadiazon], in the data set on Cyperus esculentus (3 g of ai/ha), the “Herbicidal efficacy % Cyperus esculentus” value stood at 10%. Moreover, the “Damage to crop plants (%) rice” value with rice (GA-tolerant) (in vivo) amounted to 0%.

As for `CCC(CC)Nc1c([N+](=O)[O-])cc(C)c(C)c1[N+](=O)[O-]` [C53, pendimethalin], the “Herbicidal efficacy % Amaranthus retroflexus” value in the data set on Amaranthus retroflexus (200 g of ai/ha) was 50%. In addition, in the data set on rice (GA-tolerant) (200 g of ai/ha, post-emergence, 2-3-leaf stage, scoring 13 days after treatment), the “Damage to crop plants (%) rice” value was determined as 10%.

Take `CCC(=O)Nc1ccc(Cl)c(Cl)c1` [C55, propanil]: the “Herbicidal efficacy % Cyperus esculentus” value with Cyperus esculentus (500 g of ai/ha) is 10%. The “Damage to crop plants (%) rice” value in the data set with rice (GA-tolerant) (500 g of ai/ha, post-emergence, 1-3-leaf stage, scoring 15 days after application (Table 5)) is reported as 0%.

Take `CCOC(=O)c1cnn(C)c1S(=O)(=O)NC(=O)Nc1nc(OC)cc(OC)n1` [C59, pyrazosulfuron-ethyl]: the “Herbicidal efficacy % Amaranthus retroflexus” value with Amaranthus retroflexus (50 g of ai/ha) came to 60%. In the data set on rice (GA-tolerant) (50 g of ai/ha, post-emergence, 2-3-leaf stage, scoring 13 days after treatment), the “Damage to crop plants (%) rice” value stood at 10%.

With `CS(=O)(=O)c1ccc(C(=O)C2C(=O)CCCC2=O)c(Cl)c1COCC1CCCO1` (centres unmarked) [C64, tefuryltrione], the “Herbicidal efficacy % Cyperus esculentus” value in the data set on Cyperus esculentus (50 g of ai/ha) is 30%. Also, the “Damage to crop plants (%) rice” value with rice (GA-tolerant) (setting [3]) was 0%.

`COc1nc(OC)nc(C(=O)c2cccc(F)c2N(C)S(=O)(=O)C(F)F)n1` [C72, AE 196 triafamone]: the “Herbicidal efficacy % Cyperus esculentus” value with Cyperus esculentus (6 g of ai/ha) was 65%. Besides, the “Damage to crop plants (%) rice” value in the data set with rice (GA-tolerant) (6 g of ai/ha, post-emergence, 1-3-leaf stage, scoring 15 days after application (Table 5)) is recorded as 0%.

For oxadiargyl [C49], the “Herbicidal activity % Leptochloa chinensis” value in the data set on Leptochloa chinensis (25 g of ai/ha, 1-3-leaf stage, scoring 15 days after application) is reported as 70%.
